The subject of assay [1] is Plasmodium falciparum (D6 strain). The experiment in a line: In vitro anti-malarial activity, [3H]-ethanolamine incorporation. In kind it is cell-based. The note with it: for IC50: Plasmodium falciparum; for anti-malarial potency relative to 2,3,4,5,6-pentahydroxyxanthone: in words. How it is done: The D6 strain of P. falciparum was cultured in Group A^+ human erythrocytes and suspended at a 3.3% hematocrit in RPMI-1640 (Gibco, Grand Island, N.Y.) (containing 4 g/L glucose, 50 mg/L gentamicin and 10% group A^+ human serum), buffered with 25 mM HEPES and 25 mM NaHCO3 (Larrey, 1989). Cultures were maintained at 37° C. in a gas mixture of 5% oxygen, 5% CO2, and 90% nitrogen.
The in vitro anti-malarial activities of 2,3,4,5,6-pentahydroxyxanthone and other formula X1 compounds were measured by the [^3 H]-ethanolamine incorporation method as described in Elabbadi et al., 1992, with minor modifications. [^3 H]-ethanolamine was obtained from American Radiolabeled Chemicals, Inc., St. Louis, Mo. Experiments were conducted in 96 well plates in a total volume of 200 μl at a final red blood cell concentration of 3.3% (v/v). An initial parasitemia of 0.2 to 0.5% was attained by addition of normal uninfected red cells. Radiolabeled ethanolamine was added after 48 hours of incubation and the experiment was terminated after 72 hours by collecting the cells onto glass fiber filters with an automated multiwell harvester.
Stock solutions of the various formula X1 compounds were dissolved in DMSO at a concentration of 1 mM and diluted in complete medium (including 10% human serum) to provide 10× stock concentrations in the range of 1 to 10,000 nM. The concentration of the formula X1 compound giving 50% inhibition of label incorporation (IC50) relative to control (i.e., drug-free) conditions was calculated from the dose-response curve.

Assay [2] has as its system Leishmania donovani. The experiment in a line: In vitro anti-leishmania activity, radiolabeled thymidine uptake assay. It counts as cell-based. The note with it: for IC50: Leishmania donovani. The procedure:
Briefly, promastigotes were cultivated at 25° C. in Schneiders medium supplemented with 20% inactivated fetal calf serum and 100 μg/mL of gentamicin. Cells were maintained in log phase by seeding at 1×10^6 /mL with subculturing when cultured densities approached 4×10^7 /mL before reaching their maximal density. For the assay, early log phase promastigotes were counted on a hemacytometer and resuspended at a concentration of 1-2×10^6 cell/mL in assay media (Schneiders medium plus 10% fetal bovine serum). Ten-fold serial dilutions of each test compound were prepared as described above and added to 180 μL of the parasite suspension. After incubation for 24 hours at 25° C., methyl-^3 H-thymidine was added to each sample for a final concentration of 1-2 μCi per well. Each sample was then incubated for an additional 18 hours prior to harvesting. After this incubation time, each sample was aspirated onto a filter mat, washed thoroughly with deionized water, dried and then counted in a scintillation counter with scintillation cocktail.

The subject of assay [3] is Leishmania donovani. Particulars: reported by Grogl et al. (1992); cited from earlier work.
Assay [4] relates to Candida albicans (clinical isolate). The assay is described as follows: Anti-Candida activity, minimum inhibitory concentration by visual inspection. In kind it is cell-based. Particulars: 15-18 hour incubation, 35° C., read-out: MIC against Candida albicans. How it is done:
The minimum inhibitory concentration (MIC) of formula X1 compounds against a clinical isolate of Candida albicans was determined using the following method. […] The determination of this concentration is made by visual inspection; there is no visible growth in a tube containing the MIC of the formula X1 compound whereas visible growth is present in tubes containing sub-MIC concentrations of the compound.
Candida albicans was grown to midlog-phase in Luria-Bertani broth (10 grams Bacto-tryptone, 5 grams Bacto-yeast extract and 10 grams NaCl per liter) and then inoculated into sterile test tubes containing LB broth to an initial density of 10^3 /ml. The formula X1 compound to be tested is dissolved in dimethylsulfoxide (DMSO) at a concentration of 10 mM and added to each tube at serial dilutions (1 μM, 10 μM, 25 μM, 50 μM, 100 μM and 0 μM). The tubes are incubated at 35° C. for 15-18 hours and then visually inspected.

[5] abbreviates: D6 strain, 72 h, read-out: anti-malarial activity IC50.
[6] abbreviates: Table 1, D6 strain, 72 h, read-out: IC50, μM vs. Plasmodium.
Setting [7] is: Table 2, read-out: IC50, mg/ml vs. Leishmania.
Where [8] appears, read: promastigotes, read-out: anti-leishmanial activity IC50.
[9] abbreviates: D6, 72 h, read-out: IC50, μM vs. Plasmodium.

Here are results for 13 molecules from patent publication US5977077A, “Xanthone analogs for the treatment of infectious diseases” (Interlab Corporation, priority 1996, dated 1999).

As usually defined, the MIC is the lowest concentration found to suppress growth.

In brackets after ≈: the same amount, converted by molar mass. Where two headings read alike, the source gives them in different places.

Turning to `CC(=O)Oc1cc2c(=O)c3ccc(OC(C)=O)c(OC(C)=O)c3oc2c(OC(C)=O)c1OC(C)=O` [2,3,4,5,6-pentaacetoxyxanthone], the IC50 is ~0.075 µM in assay [1] (setting [5]) and 0.075 µM in assay [1] (setting [6]). Moreover, in assay [1], the “anti-malarial potency relative to 2,3,4,5,6-pentahydroxyxanthone” value is recorded as “several times more potent”.
Consider `O=c1c2ccccc2oc2cc(O)cc(O)c12` [1,3-dihydroxyxanthone, 1,3-dihydroxyxanthone], for which the IC50 in assay [1] (setting [6]) is > 100 µM.
On to `COc1c(O)cc2oc3cc(O)c(CC=C(C)C)c(O)c3c(=O)c2c1CC=C(C)C` [Mangostin, reference compound], for which the IC50 stood at 0.00041 mg/mL in assay [2] (read-out: anti-leishmanial activity IC50), 0.00041 mg/mL in assay [2] (setting [7]), 1000 nM in assay [2] (setting [8]) and 5 µM in assay [1] (setting [9]).
Turning to `O=c1c2cc(O)c(O)cc2oc2cc(O)c([C@@H]3O[C@H](CO)[C@@H](O)[C@H](O)[C@H]3O)c(O)c12` [Mangiferin, reference compound], the IC50 was > 0.05 mg/mL in assay [2] (setting [7]) and 50 µM in assay [1] (setting [6]).
Regarding `O.O.O.O.O.O.O.O.O.O=C([O-])[C@@H]1[O][Sb](=[O])([O][Sb]2(=[O])[O][C@H]([C@H](O)CO)[C@H](O)[C@H](C(=O)[O-])[O]2)[O][C@H]([C@H](O)CO)[C@@H]1O.[Na+].[Na+].[Na+]` (stereo partly drawn) [Pentostam], the “IC50 values of commonly used anti-leishmanial drugs” value in assay [3] was 100 to 2000 µg/mL.
In the case of `O=c1c2ccc(O)c(O)c2oc2c(O)c(O)ccc12` [3,4,5,6-Tetrahdroxyxanthone, 3,4,5,6-Tetrahdroxy-xanthone], the IC50 in assay [1] (setting [6]) was determined as 10 µM.
`COc1cc2c(=O)c3ccc(OC)c(OC)c3oc2c(OC)c1OC` [2,3,4,5,6-pentamethoxyxanthone]: the IC50 in assay [1] (setting [5]) and in assay [1] (setting [6]) was > 100 µM in each case. The “anti-malarial potency relative to 2,3,4,5,6-pentahydroxyxanthone” value in assay [1] is on record as “essentially eliminated the anti-malarial activity”.
`O=c1c2cc(O)c(O)c(O)c2oc2c(O)c(O)c(O)cc12` [2,3,4,5,6,7-hexahydroxyxanthone]: the MIC in assay [4] was ~37.5 µM (≈ 11 µg/mL). Also, the IC50 was 0.0015 mg/mL in assay [2] (setting [7]), ~5000 nM in assay [2] (setting [8]), 0.075 µM in assay [1] (setting [5]) and 0.075 µM in assay [1] (setting [6]).
On to `CCN(CC)CCCC(C)Nc1ccnc2cc(Cl)ccc12` (stereo not drawn) [Chloroquine, reference compound], for which the IC50 in assay [1] (D6, 72 h, read-out: anti-malarial activity IC50) is ~0.02 µM.
For `O=c1c2ccc(O)c(O)c2oc2c(O)c(O)c(O)cc12` [2,3,4,5,6-pentahydroxyxanthone], in assay [4], the minimal inhibitory concentration (MIC) was ~37.5 µM (≈ 10.4 µg/mL). In addition, the IC50 in assay [2] (setting [7]) was 0.0015 mg/mL; in assay [2] (setting [8]), ~5000 nM; in assay [1] (setting [5]) it was 0.4 to 0.5 µM; in assay [1] (setting [6]), 0.4 to 0.5 µM. In addition, the “anti-leishmanial activity IC50” value in assay [2] (promastigotes, value in mg/ml) is ~1 µg/mL.
On to `O=c1c2cc(O)c(O)c(O)c2oc2cc(O)c(O)c(O)c12` [1,2,3,5,6,7-Hexahydroxyxanthone, 1,2,3,5,6,7-Hexahydroxy-xanthone], for which the IC50 in assay [1] (setting [6]) is 25 to 50 µM.
On to `O=c1c2cc(O)c(O)c(O)c2oc2cc(O)cc(O)c12` [1,3,5,6,7-pentahydroxyxanthone, 1,3,5,6,7-pentahydroxy-xanthone], for which the IC50 in assay [1] (setting [6]) was determined as 1 µM.
`O=c1c2ccccc2oc2ccccc12` [Xanthone]: in assay [1] (setting [9]), the IC50 stood at 10 µM.
